Source: patent EP1313763B1, “METHOD FOR THE EXTRACTION AND THE USE OF ANTI[…] PEPTIDES FOR TREATING INFECTIOUS DISEASES” (IPF Pharmaceuticals GmbH, priority 2000, dated 2001)

Columns and labels:
E. coli = test: Radial diffusion inhibition test of HPLC fractions; format: cell-based, Escherichia coli; settings: pure peptide in purified HPLC fraction from tissue extract; E. coli in agarose, 37 °C, 16 h
Text: (§1) Für die Reinigung von antimikrobiellen Peptiden aus Plazentaextrakt können verschiedene HPLC Trennverfahren kombiniert werden, um eine möglichst reine Darstellung über eine optimale Trennung zu erzielen und inaktive, unerwünschte Bestandteile abzutrennen. Die jeweiligen Proben, die nach jedem Trennungsschritt entstehen, werden auf ihre antimikrobielle Aktivität gegen Escherichla coli mit Hilfe des Radial-DifFusions-Hemmtests untersucht (siehe Beispiel 3). Notwendig für die Reinigung ist die Kombination von mindestens zwei Reverse Phase Chromatographieschritten und der Einsatz einer Kationenaustausch-HPLC-Trennung. In dem Biotest sollte die jeweilige Probe salzarm eingesetzt werden, um ein möglichst optimales Screeningergebnis zu erhalten.
as §1, with “Thymusextrakt” for “Plazentaextrakt”, “Escherichia” for “Escherichla”, “Radial-Diffusions-Hemmtests” for “Radial-DifFusions-Hemmtests”, “2). Empfehlenswert” for “3). Notwendig”, “In dem Biotest sollte die jeweilige Probe salzarm eingesetzt werden, um ein möglichst optimales Screeningergebnis zu erhalten.” left out

[1] = test system: Saccharomyces cerevisiae ATCC 9763; test: Minimal inhibitory concentration (MIC) determination; settings: incubation 18 ± 2 h, chemically synthesized peptides
Procedure: (§2) Die antimikrobielle Aktivität der erfindungsgemäßen Peptide wurde unter Anwendung der Bestimmung der minimalen Hemmstoffkonzentration (MIC) gegen verschiedene Keime, wie Gram-positive und Gram-negative Bakterien und Hefen, untersucht. Die minimale Hemmstoffkonzentration bezeichnet die Peptidkonzentration, die minimal erforderlich ist, um das Wachstum von Mikroorganismen nach einer Inkubationszeit von 18 ± 2 h vollständig zu hemmen.

[2] = test system: Staphylococcus carnosus TM 300; test: as above; settings: incubation 18 ± 2 h, chemically synthesized peptides
Procedure: as §2

[3] = test system: Micrococcus luteus ATCC 9341; test: as above; settings: incubation 18 ± 2 h, chemically synthesized peptides
Procedure: as §2

[4] = test system: Pseudomonas aeruginosa clinical isolate; test: as above; settings: incubation 18 ± 2 h, chemically synthesized peptides
Procedure: as §2

[5] = test system: Bacillus subtilis ATCC 6051; test: as above; settings: incubation 18 ± 2 h, chemically synthesized peptides
Procedure: as §2

[6] = test system: Escherichia coli BL21 (DE3); test: as above; settings: incubation 18 ± 2 h, chemically synthesized peptides
Procedure: as §2

[7] = test system: Klebsiella pneumoniae ATCC 10031; test: as above; settings: incubation 18 ± 2 h, chemically synthesized peptides
Procedure: as §2

[8] = test system: Staphylococcus aureus ATTC 25923; test: as above; settings: incubation 18 ± 2 h, chemically synthesized peptides
Text: (§3) Dabei werden als Testmikroorganismen entweder Staphylococcus aureus oder Escherichia coli verwendet, je nachdem, bei welchem Mikroorganismus das Peptid bessere Wirksamkeit hat. Die Bakterien sind wie folgt charakterisiert: • Staphylococcous aureus: Gram-positive Kokken, ATCC 25923 • Escherichia coll: Gram-negative Stäbchen, ATCC 25922
(§4) Die antimikrobielle Aktivität der erfindungsgemäßen Peptide wurde unter Anwendung der Bestimmung der minimalen Hemmstoffkonzentration (MIC) gegen verschiedene Keime, wie Gram-positive und Gram-negative Bakterien und Hefen, untersucht. Die minimale Hemmstoffkonzentration bezeichnet die Peptidkonzentration, die minimal erforderlich ist, um das Wachstum von Mikroorganismen nach einer Inkubationszeit von 18 ± 2 h vollständig zu hemmen. Diese Quantifizierung der antimikrobiellen Aktivität ist mit chemisch synthetisierten Peptiden (Peptidsequenzen 1-5) gegen nicht pathogene sowie human pathogene Erreger durchgeführt worden.

[9] = test system: Escherichia coli ATTC 25922; test: as above; settings: incubation 18 ± 2 h, chemically synthesized peptides
Text: as §3, §4

Row | Substance | antimikrobielle Aktivität (E. coli) | minimale Hemmkonzentration (MIC) [1] [µg/mL] | minimale Hemmkonzentration (MIC) [2] [µg/mL] | minimale Hemmkonzentration (MIC) [3] [µg/mL] | minimale Hemmkonzentration (MIC) [4] [µg/mL] | minimale Hemmkonzentration (MIC) [5] [µg/mL] | minimale Hemmkonzentration (MIC) [6] [µg/mL] | minimale Hemmkonzentration (MIC) [7] [µg/mL] | minimale Hemmkonzentration (MIC) [8] [µg/mL] | minimale Hemmkonzentration (MIC) [9] [µg/mL]
1 | hGAPDH-1-31 [Peptide 2] | antimikrobiell wirksame | 100 | 12.5 | 31.25 | 31.25 | 7.8 | 7.8 |  |  | 
2 | hHEM-g-130-146 [Peptide 1] | antimikrobiell wirksame | 100 | 100 | 200 | > 200 | 100 | 100 | 300 | 200 | 200
